Values quoted from earlier work as cited in paper PMC7289749 (European Journal of Medicinal Chemistry, 2020).
Like-named read-outs stand apart in the source and are kept apart here.

Columns and labels:
SARS-CoV-2 Mpro = details: read-out: SARS-CoV-2 Mpro inhibitory activity IC50
SARS-CoV-2 [1] = details: read-out: inhibition on the replication of SARS-CoV-2 EC50; dose-dependent
SARS-CoV-2 [2] = details: for EC50: read-out: EC50 (half-maximal effective concentration)
SARS-CoV-2 [3] = tested on: SARS-CoV-2
Vero E6 cells = details: read-out: CC50 (half-maximal cytotoxic concentration)
[4] = in animals, relative to CQ
SARS-CoV-2 [5] = details: human liver cancer Huh-7 cells

## O=c1cc(-c2ccccc2)oc2cc(O)c(O)c(O)c12 [Baicalein]
SARS-CoV-2 Mpro
  IC50: […]
SARS-CoV-2 [1]
  EC50: 1.69 µM

## CCN(CC)CCCC(C)Nc1ccnc2cc(Cl)ccc12 (stereo not shown) [Chloroquine]
SARS-CoV-2 [2]; CC50/EC50, Vero E6 cells
  selectivity index (SI): > 88.50

## O=c1c2ccccc2[se]n1-c1ccccc1 [Ebselen]
SARS-CoV-2 [3]
  anti-viral activity in cell-based assays: effective anti-viral activity

## NC(=O)c1nc(F)c[nH]c1=O [Favipiravir]
Vero E6 cells
  CC50: > 400 µM

## CCN(CCO)CCCC(C)Nc1ccnc2cc(Cl)ccc12 (stereo not shown) [Hydroxychloroquine]
[4]
  less toxic than CQ: about 40%

## N=C(N)Nc1ccc(C(=O)Oc2ccc3cc(C(=N)N)ccc3c2)cc1 [Nafamostat]
SARS-CoV-2 [2]
  selectivity index (SI): > 4.44

## CC(=O)Oc1ccccc1C(=O)Nc1ncc([N+](=O)[O-])s1 [Nitazoxanide]
SARS-CoV-2 [2]; CC50/EC50, Vero E6 cells
  selectivity index (SI): > 16.76
SARS-CoV-2 [2]
  EC50: 2.12 µM
Vero E6 cells
  CC50: > 35.5 µM

## Nc1nc2c(ncn2CCC(CO)CO)c(=O)[nH]1 [Penciclovir]
SARS-CoV-2 [2]; CC50/EC50, Vero E6 cells
  selectivity index (SI): > 4.17
SARS-CoV-2 [2]
  EC50: 96 µM
Vero E6 cells
  CC50: > 400 µM

## NC(=O)c1ncn([C@@H]2O[C@H](CO)[C@@H](O)[C@H]2O)n1 [Ribavirin]
SARS-CoV-2 [2]; CC50/EC50, Vero E6 cells
  selectivity index (SI): > 3.65
Vero E6 cells
  CC50: > 400 µM

## Remdesivir
SARS-CoV-2 [5]
  inhibition of virus infection: inhibited virus infection
